This note sets out measurements from patent US9938262B2, “Benzamides” (Merck Patent GmbH, priority 2011, dated 2018).

Where only a bound is given, the exact number is not on record here.

T1 sequence (P23945 18-695): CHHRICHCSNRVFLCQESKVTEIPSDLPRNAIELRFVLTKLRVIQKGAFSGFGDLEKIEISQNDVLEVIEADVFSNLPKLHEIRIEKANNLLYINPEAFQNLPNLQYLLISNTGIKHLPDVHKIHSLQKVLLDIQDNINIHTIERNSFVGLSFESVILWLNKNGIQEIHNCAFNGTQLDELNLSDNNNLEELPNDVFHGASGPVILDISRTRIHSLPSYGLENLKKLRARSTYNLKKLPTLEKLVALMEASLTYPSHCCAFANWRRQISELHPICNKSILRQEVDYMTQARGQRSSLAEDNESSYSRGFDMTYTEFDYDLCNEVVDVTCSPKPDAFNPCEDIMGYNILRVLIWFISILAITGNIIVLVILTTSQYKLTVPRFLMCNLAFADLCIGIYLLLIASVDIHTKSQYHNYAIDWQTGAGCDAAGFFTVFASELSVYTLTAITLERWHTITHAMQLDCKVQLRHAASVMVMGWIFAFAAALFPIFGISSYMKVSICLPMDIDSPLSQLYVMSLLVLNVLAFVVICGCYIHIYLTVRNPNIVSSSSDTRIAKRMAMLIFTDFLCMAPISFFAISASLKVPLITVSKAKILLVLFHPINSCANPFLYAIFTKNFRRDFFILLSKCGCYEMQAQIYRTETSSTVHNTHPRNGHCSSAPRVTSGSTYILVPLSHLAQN
T1 sequence (P01215 25-116 partner): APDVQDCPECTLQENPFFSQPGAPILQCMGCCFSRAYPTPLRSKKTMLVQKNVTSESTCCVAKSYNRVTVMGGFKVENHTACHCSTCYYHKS
T1 sequence (P01225 19-129 partner): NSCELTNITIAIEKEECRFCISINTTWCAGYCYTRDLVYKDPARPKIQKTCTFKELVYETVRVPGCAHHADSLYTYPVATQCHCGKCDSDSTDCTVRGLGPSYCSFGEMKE

The first test addresses T1, FSHR (Homo sapiens, UniProt P23945).
T1 construct: expressed in transfected cells; host or cells: CHO (Cho-FSHR-LUC-1-1-43)
In words: EC50 of cyclic AMP production in CHO FSHR cells + EC20 FSH (Assay A). Particulars: 1 h; 5 μM; effect relative to maximum response of the FSH standard; Table 1. The test is classed as cell-based. The protocol:
Example 10: EC50 of Cyclic AMP Production in CHO FSHR Cells+EC20 FSH (Assay A)
2500 Cho-FSHR-LUC-1-1-43 cells were plated per well in 5 μl of phenol red free DMEM/F12+1% FBS. Cells were plated in 384 well, solid white low volume plates (Greiner 784075) by Multidrop. Cells were assayed by adding 100 μl of 2×EC20 FSH/IBMX in DMEM/F12+0.1% BSA) by Multidrop to 2 μl of test compound stamped in 384 well plates (compounds are diluted 1:50). The final FSH concentration was […], and the final IBMX concentration was 200 μM. The compound plate map was as follows: Column 1: 2 μl of DMSO; Column 2: 2 μl of DMSO; Columns 3-12 and 13-24: 2 μl of test compound, diluted 1:4 in 100% DMSO, or 2 μl of FSH, diluted 1:4 in DMEM/F12+0.1% BSA. The starting concentration for FSH was 50 nM (final concentration was 0.5 nM). […] 5 μl of compound+EC20 FSH mixture were transferred to cell plates (1:2 dilution into 5 μl of cell media) The plates were incubated at 37° C. for 1 h. 10 μl of mixed HTRF (CisBio #62AM4PEC) reagents were added per well and incubated at room temperature for 1 h. The plates were read on Envision using the cAMP HTRF—low volume 384 well protocol. The readout was the calculated fluorescence ratio (665 nm/620 nm). Values given in percent (%) indicate the percental effect (response) at a certain concentration of agonist relative to the maximum response of the FSH standard.
In the case of `Cc1ccccc1N1CCN(c2ccc(C(=O)NCCc3c[nH]c4ccccc34)cc2NC(=O)c2ccco2)CC1` [Compound 10, Furan-2-carboxylic acid [5-[2-(1H-indol-3-yl)-ethylcarbamoyl]-2-(4-o-tolyl-piperazin-1-yl)-phenyl]-amide], the activation at 5 µM amounted to 39%.

Turning to `Cc1ccccc1N1CCN(c2ccc(C(=O)N3CCN(C(=O)OC(C)(C)C)CC3)cc2NC(=O)c2ccco2)CC1` [Compound 12], the activation at 5 µM was 7%.

As for `Cc1ccccc1N1CCN(c2ccc(C(=O)NCCCN3CCCC3=O)cc2NC(=O)c2ccc(-c3ccccc3)o2)CC1` [Compound 13], the activation at 5 µM worked out at 14%.

Consider `Cc1ccccc1N1CCN(c2ccc(C(=O)N[C@@H]3CCCN(C(=O)OC(C)(C)C)C3)cc2NC(=O)c2ccco2)CC1` [Compound 21], for which the activation at 5 µM came out at 22%.

Take `CC(=O)N1CCN(C(=O)c2ccc(N3CCN(c4ccccc4C)CC3)c(NC(=O)c3ccco3)c2)CC1` [Compound 23]: the activation at 5 µM was 4%.

For `Cc1ccccc1N1CCN(c2ccc(C(=O)NCCCN3CCCC3=O)cc2NC(=O)c2cccnc2)CC1` [Compound 37], the activation at 5 µM is 37%.

On to `Cc1ccccc1N1CCN(c2ccc(C(=O)NCCCN3CCCC3=O)cc2NC(=O)c2cccc(C(F)(F)F)c2)CC1` [Compound 39], for which the activation at 5 µM worked out at 15%.

On to `Cc1ccccc1N1CCN(c2ccc(C(=O)NCCCN3CCCC3=O)cc2NC(=O)c2ccc(C(F)(F)F)cc2)CC1` [Compound 40], for which the activation at 5 µM was found to be 40%.

Turning to `Cc1ccccc1N1CCN(c2ccc(C(=O)NCCCN3CCCC3=O)cc2NC(=O)c2ccc3ccccc3c2)CC1` [Compound 43], the activation at 5 µM was determined as 44%.

On to `Cc1ccccc1N1CCN(c2ccc(C(=O)NCCCN3CCCC3=O)cc2NC(=O)c2cccc3cccnc23)CC1` [Compound 44], for which the activation at 5 µM is 44%.

In the case of `Cc1ccccc1N1CCN(c2ccc(C(=O)NCCCN3CCCC3=O)cc2NS(=O)(=O)c2ccco2)CC1` [Compound 46], the activation at 5 µM turned out to be 10%.

In the case of `Cc1cc(C)c(C(=O)Nc2cc(C(=O)NCCCN3CCCC3=O)ccc2N2CCN(c3ccccc3C)CC2)o1` [Compound 51], the activation at 5 µM was 39%.

Regarding `CCOC(=O)N1CCN(c2ccc(C(=O)NCCCN3CCCC3=O)cc2NC(=O)c2ccco2)CC1` [Compound 62, 4-{2-[(Furan-2-carbonyl)-amino]-4-[3-(2-oxo-pyrrolidin-1-yl)-propylcarbamoyl]-phenyl}-piperazine-1-carboxylic acid ethyl ester], the activation at 5 µM was 42%.

For `Cc1ccccc1N1CCN(c2ccc(C(=O)NCCN(C)C(=O)OC(C)(C)C)cc2NC(=O)c2ccco2)CC1` [Compound 64, {2-[3-[(Furan-2-carbonyl)-amino]-4-(4-o-tolyl-piperazin-1-yl)-benzoylamino]-ethyl}-methyl-carbamic acid tert-butyl ester], the activation at 5 µM came to 72%.

The test is the same for the next values; noted with them: CHO FSHR cells + EC20 FSH; Table 1; read-out: Assay A EC50 of cyclic AMP production.
As to `Cc1cc(C(=O)Nc2cc(C(=O)NCCCN3CCCC3=O)ccc2N2CCN(c3ccccc3C)CC2)c(C(F)(F)F)o1` [Compound 1], the EC50 – broadly, the midpoint of the concentration-response curve – lay in the range of 100 to 1000 nM.

In the case of `Cc1ccccc1N1CCN(c2ccc(C(=O)NCCCN3CCCC3=O)cc2NC(=O)c2sccc2Br)CC1` [Compound 4], the EC50 lay within 1000 to 10000 nM.

`Cc1ccccc1N1CCN(c2ccc(C(=O)NCCCN3CCCC3=O)cc2NC(=O)c2occc2Br)CC1` [Compound 7]: the EC50 lay in the range of 1000 to 10000 nM.

For the molecule `Cc1ccccc1N1CCN(c2ccc(C(=O)N[C@@H](C)c3ccccc3)cc2NC(=O)c2ccco2)CC1` [Compound 11, furan-2-carboxylic acid [5-((S)-1-phenyl-ethylcarbamoyl)-2-(4-o-tolyl-piperazin-1-yl)-phenyl]-amide], the EC50 lay in the range of 100 to 1000 nM.

On to `Cc1cc(C(=O)Nc2cc(C(=O)NCCCN3CCCC3=O)ccc2N2CCN(c3ccccc3C)CC2)c(C)o1` [Compound 14], for which the EC50 was 100 to 1000 nM.

Regarding `COc1ccc(CNC(=O)c2ccc(N3CCN(c4ccccc4C)CC3)c(NC(=O)c3ccco3)c2)cc1OC` [Compound 17], the EC50 lay within 100 to 1000 nM.

Consider `Cc1ccccc1N1CCN(c2ccc(C(=O)NCCCN3CCCC3=O)cc2NC(=O)c2ccccc2Cl)CC1` [Compound 19], for which the EC50 is 1000 to 10000 nM.

Regarding `Cc1ccccc1N1CCN(c2ccc(C(=O)NCCCN3CCCC3=O)cc2NC(=O)c2cccs2)CC1` [Compound 20], the EC50 lay in the range of 100 to 1000 nM.

On to `Cc1ccccc1N1CCN(c2ccc(C(=O)N[C@@H]3CCCNC3)cc2NC(=O)c2ccco2)CC1` [Compound 22], for which the EC50 fell in the range of 1000 to 10000 nM.

For `Cc1ccccc1N1CCN(c2ccc(C(=O)NCCCN3CCCC3=O)cc2NC(=O)c2ccc[nH]2)CC1` [Compound 24], the EC50 lay in the range of 1000 to 10000 nM.

Regarding `Cc1ccccc1N1CCN(c2ccc(C(=O)NCCCN3CCCC3=O)cc2NC(=O)c2cnc(Br)s2)CC1` [Compound 25], the EC50 was in the range of 1000 to 10000 nM.

For `Cc1ccccc1N1CCN(c2ccc(C(=O)NCCCN3CCCC3=O)cc2NC(=O)CC(C)C)CC1` [Compound 26], the EC50 fell in the range of 1000 to 10000 nM.

Take `Cc1ccccc1N1CCN(c2ccc(C(=O)NCCCN3CCCC3=O)cc2NC(=O)c2cccc(Cl)c2)CC1` [Compound 28]: the EC50 fell in the range of 1000 to 10000 nM.

For `Cc1ccccc1N1CCN(c2ccc(C(=O)NCCCN3CCCC3=O)cc2NC(=O)c2ccc(Cl)cc2)CC1` [Compound 29], the EC50 was in the range of 100 to 1000 nM.

As to `Cc1ccccc1N1CCN(c2ccc(C(=O)NCCCN3CCCC3=O)cc2NC(=O)c2cccc(F)c2)CC1` [Compound 30], the EC50 was in the range of 1000 to 10000 nM.

Take `Cc1ccccc1N1CCN(c2ccc(C(=O)NCCCN3CCCC3=O)cc2NC(=O)c2ccc(C#N)cc2)CC1` [Compound 33]: the half-maximal effective concentration (EC50) lay within 1000 to 10000 nM.

With `Cc1cccc(C(=O)Nc2cc(C(=O)NCCCN3CCCC3=O)ccc2N2CCN(c3ccccc3C)CC2)c1` [Compound 34], the EC50 was 1000 to 10000 nM.

With `COc1ccccc1C(=O)Nc1cc(C(=O)NCCCN2CCCC2=O)ccc1N1CCN(c2ccccc2C)CC1` [Compound 41], the EC50 fell in the range of 1000 to 10000 nM.

Consider `COc1ccc(C(=O)Nc2cc(C(=O)NCCCN3CCCC3=O)ccc2N2CCN(c3ccccc3C)CC2)cc1` [Compound 42], for which the EC50 is 100 to 1000 nM.

Turning to `CCNC(=O)N1CCC[C@@H](NC(=O)c2ccc(N3CCN(c4ccccc4C)CC3)c(NC(=O)c3ccco3)c2)C1` [Compound 48, (R)-3-[3-[(furan-2-carbonyl)-amino]-4-(4-o-tolyl-piperazin-1-yl)-benzoylamino]-piperidine-1-carboxylic acid ethylamide], the concentration for a half-maximal effect (EC50) fell in the range of 1000 to 10000 nM.

Take `Cc1ccccc1N1CCN(c2ccc(C(=O)NC3CCN(C(=O)OC(C)(C)C)CC3)cc2NC(=O)c2ccco2)CC1` [Compound 49, 4-[3-[(Furan-2-carbonyl)-amino]-4-(4-o-tolyl-piperazin-1-yl)-benzoylamino]-piperidine-1-carboxylic acid tert-butyl ester]: the EC50 fell in the range of 100 to 1000 nM.

Turning to `CNC[C@@H](NC(=O)c1ccc(N2CCN(c3ccccc3C)CC2)c(NC(=O)c2ccco2)c1)c1ccc(Cl)cc1` [Compound 55, Furan-2-carboxylic acid [5-[(S)-1-(4-chloro-phenyl)-2-methylamino-ethylcarbamoyl]-2-(4-o-tolyl-piperazin-1-yl)-phenyl]-amide], the EC50 lay in the range of 1000 to 10000 nM.

Turning to `CC(=O)N1CCC(NC(=O)c2ccc(N3CCN(c4ccccc4C)CC3)c(NC(=O)c3ccco3)c2)CC1` [Compound 56, Furan-2-carboxylic acid [5-(1-acetyl-piperidin-4-ylcarbamoyl)-2-(4-o-tolyl-piperazin-1-yl)-phenyl]-amide], the EC50 lay within 1000 to 10000 nM.

`CC(=O)N(C)C[C@@H](NC(=O)c1ccc(N2CCN(c3ccccc3C)CC2)c(NC(=O)c2ccco2)c1)c1ccc(Cl)cc1` [Compound 57]: the EC50 was 1000 to 10000 nM.

Take `COc1ccc(C(=O)Nc2cc(C(=O)NCCCN3CCCC3=O)ccc2N2CCN(c3ccccc3C)CC2)c(OC)c1` [Compound 59]: the EC50 is 1000 to 10000 nM.

On to `CCOc1cc(CCNC(=O)c2ccc(N3CCN(c4ccccc4C)CC3)c(NC(=O)c3ccco3)c2)ccc1OC` [Compound 65], for which the EC50 is 1000 to 10000 nM.

For the molecule `Cc1ccccc1N1CCN(c2ccc(C(=O)N[C@H](CO)c3ccccc3)cc2NC(=O)c2ccco2)CC1` [Compound 67, Furan-2-carboxylic acid [5-((S)-2-hydroxy-1-phenyl-ethylcarbamoyl)-2-(4-o-tolyl-piperazin-1-yl)-phenyl]-amide], the EC50 is 100 to 1000 nM.

In the case of `Cc1ccccc1N1CCN(c2ccc(C(=O)NCCCN3CCCC3=O)cc2NC(=O)c2ccoc2C)CC1` [Compound 68], the EC50 fell in the range of 1000 to 10000 nM.

Regarding `Cc1ccccc1N1CCN(c2ccc(C(=O)NCCCN3CCCC3=O)cc2NC(=O)c2ccsc2)CC1` [Compound 69], the EC50 is 100 to 1000 nM.

Consider `Cc1ccccc1N1CCN(c2ccc(C(=O)NCCCN3CCCC3=O)cc2NC(=O)c2scnc2C)CC1` [Compound 70], for which the EC50 is above 10000 nM.

As to `Cc1nc(C(F)(F)F)c(C(=O)Nc2cc(C(=O)NCCCN3CCCC3=O)ccc2N2CCN(c3ccccc3C)CC2)s1` [Compound 71], the EC50 lay in the range of 1000 to 10000 nM.

In the case of `Cc1ccccc1N1CCN(c2ccc(C(=O)NCCCN3CCCC3=O)cc2NC(=O)c2sc(Br)nc2C)CC1` [Compound 72], the EC50 is above 10000 nM.
